Laboratory results: paper PMC5449191 (Nature plants, 2016)

What was measured:
CsACT = CsACT (Cucumis sativus, UniProt A0A097IYL7); test: acetyltransferase assay, LC-MS of product; type: biochemical; details: 400 μM acetyl-CoA, 400 μM substrate, pH 7.5, 31°C
CmACT = CmACT (Cucumis melo, UniProt A0A1S3CAV7); test: acetyltransferase assay, LC-MS of product; type: biochemical; details: 400 μM acetyl-CoA, 400 μM substrate, pH 7.5, 31°C

For `CC(C)(O)/C=C/C(=O)[C@](C)(O)[C@H]1[C@H](O)C[C@@]2(C)[C@@H]3CC=C4[C@@H](C[C@H](O)C(=O)C4(C)C)[C@]3(C)C(=O)C[C@]12C` [CuD], the “acetyltransferase assay, LC-MS of product” value (“acetyltransferase assay” below) (CsACT) was “acylate a wide range of substrates (e.g., CuD, CuI, and deacetyl CuC)” and the “acetyltransferase assay” value (CmACT; product CuB) was “able to acetylate the cucurbitacin precursors CuD and CuI”.
`CC(C)(O)/C=C/C(=O)[C@](C)(O)[C@H]1[C@H](O)C[C@@]2(C)[C@@H]3CC=C4[C@@H](C=C(O)C(=O)C4(C)C)[C@]3(C)C(=O)C[C@]12C` [CuI] was tested, and the “acetyltransferase assay” value (CmACT) was “acylate a wide range of substrates (e.g., CuD, CuI, and deacetyl CuC)”.
With `CC(C)(O)/C=C/C(=O)[C@](C)(O)[C@H]1[C@H](O)C[C@@]2(C)[C@@H]3CC=C4[C@@H](CC[C@H](O)C4(C)C)[C@]3(CO)C(=O)C[C@]12C` [deacetyl CuC] the “acetyltransferase assay” value (CsACT) was “acylate a wide range of substrates (e.g., CuD, CuI, and deacetyl CuC)”.
